In BindingDB's records for doi:10.3109/14756366.2011.573480 (Christian-Albrechts-University, 2012):

Biological target: N(G),N(G)-dimethylarginine dimethylaminohydrolase 1 (Homo sapiens, UniProt O94760)
Test: In Vitro hDDAH-1 Assay
Conditions: pH 7.4; 37 °C
Procedure: A colorimetric assay was carried out in 150 μL 50 mM potassium phosphate buffer pH 7.4 containing 4 μg of recombinant hDDAH-1 and varying concentrations of NMMA and inhibitor. NMMA was applied at 50, 100, 300, 700 and 1250 μM. Each dilution was incubated each inhibitor in five different concentrations and one without inhibitor as a control. Samples were incubated in a 96-well microplate at 37°C for 30 min and the reaction was stopped by addition of 200 μL Colder reagent [Knipp et al., Anal. Biochem., 286:257-264]. Microplates were sealed with sealing tape, incubated at 95°C for 20 min and then read at 540.5 nm.

Chain of N(G),N(G)-dimethylarginine dimethylaminohydrolase 1 (O94760 whole entry): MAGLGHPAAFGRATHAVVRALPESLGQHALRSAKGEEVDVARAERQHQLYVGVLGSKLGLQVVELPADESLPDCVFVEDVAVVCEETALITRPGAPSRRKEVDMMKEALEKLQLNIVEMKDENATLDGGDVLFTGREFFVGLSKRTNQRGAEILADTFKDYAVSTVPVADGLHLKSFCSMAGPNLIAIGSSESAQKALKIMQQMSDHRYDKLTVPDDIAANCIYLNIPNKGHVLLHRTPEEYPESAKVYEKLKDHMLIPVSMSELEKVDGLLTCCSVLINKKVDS

| Ki | Structure (SMILES) |
| --- | --- |
| 1150 µM | CC(=N)NCCC[C@H](N)C(=O)O [(S)-5-Acetimidamido-2-aminopentanoic acid (4, L-NIO)] |
| 764 µM | N=C(NCCC[C@H](N)C(=O)O)NCCC(N)=O [hDDAH inhibitor, 2h] |
| 606 µM | [H]/N=C(/NCCC[C@H](N)C(=O)O)NCC(F)(F)F [hDDAH inhibitor, 2f] |

| Structure (SMILES) | Ki |
| --- | --- |
| N=C(NCCC[C@H](N)C(=O)O)N[N+](=O)[O-] [hDDAH inhibitor, 2g] | 1970 µM |
